Values quoted from earlier work as cited in US20200057081A1, “System and Method for Managing Animal Cancers by Disabling the Cancer Cells Ability to Reproduce” (priority 2018, published 2020).
pIC50: −log10 of the molar value.

How the values were obtained:
[1] = tested on: tumors transplanted to mice
[2] = tested on: cultured cancer cell lines; settings: multiple cell lines
[3] = target: T1, dynamin GTPase (Homo sapiens, UniProt O00429); settings: in mammalian cells; read-out: IC50, inhibition of mitochondrial division / dynamin GTPase activity
T1 construct: host or cells: mammalian cells (not specified)
T1 sequence (O00429 whole entry): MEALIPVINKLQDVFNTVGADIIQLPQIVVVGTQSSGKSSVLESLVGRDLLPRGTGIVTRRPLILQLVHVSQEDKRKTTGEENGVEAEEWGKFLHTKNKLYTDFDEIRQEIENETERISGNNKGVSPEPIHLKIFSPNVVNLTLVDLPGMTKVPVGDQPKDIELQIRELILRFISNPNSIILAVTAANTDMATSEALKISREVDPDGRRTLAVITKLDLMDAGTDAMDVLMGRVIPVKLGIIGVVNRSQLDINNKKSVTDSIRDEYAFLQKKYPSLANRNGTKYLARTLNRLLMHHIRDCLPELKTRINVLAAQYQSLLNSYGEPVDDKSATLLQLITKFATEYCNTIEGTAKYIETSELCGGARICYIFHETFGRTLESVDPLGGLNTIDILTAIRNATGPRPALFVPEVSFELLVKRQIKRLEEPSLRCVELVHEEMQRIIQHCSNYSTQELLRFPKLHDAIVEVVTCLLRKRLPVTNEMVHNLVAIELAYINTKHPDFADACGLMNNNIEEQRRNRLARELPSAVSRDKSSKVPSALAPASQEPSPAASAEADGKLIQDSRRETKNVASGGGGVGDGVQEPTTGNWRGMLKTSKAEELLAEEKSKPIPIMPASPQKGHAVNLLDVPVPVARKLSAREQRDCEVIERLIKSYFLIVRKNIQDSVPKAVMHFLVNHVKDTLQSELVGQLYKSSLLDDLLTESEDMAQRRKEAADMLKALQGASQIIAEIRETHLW

[4] = tested on: mitochondria; settings: Bid-activated, Bax/Bak-dependent, in vitro
[5] = tested on: cancer cells
[6] = target: Drp1/Fis1 interaction (Homo sapiens, UniProt O00429)
Drp1/Fis1 interaction, sequence (O00429 whole entry): as above

O=C(O)C(=O)CBr [3-bromopyruvate]
tumor growth [1]: slow down the growth

CC1=C2C[C@H]3[C@@H](CC=C4C[C@@H](O)CC[C@@]43C)[C@@H]2CC[C@]12O[C@@H]1C[C@H](C)CN[C@H]1[C@H]2C [Cyc]
anti-proliferative effect [2]: modest anti-proliferative effect

CS(=O)(=O)c1ccc(C(=O)Nc2ccc(Cl)c(-c3ccccn3)c2)c(Cl)c1 [GDC-0449]
anti-proliferative effect [2]: modest anti-proliferative effect

COc1cc(-n2c(=S)[nH]c3ccccc3c2=O)c(Cl)cc1Cl [Mdivi 1]
pIC50 [3]: ~4.30 | cytochrome c release from mitochondria [4]: block Bid-activated Bax/Bak-dependent cytochrome c release

C=C1CC[C@H](O)C/C1=C/C=C1\CCC[C@]2(C)[C@@H]([C@H](C)CCCC(C)C)CC[C@@H]12 [VD3]
anti-proliferative effect [2]: modest anti-proliferative effect

CN(C)c1ccc(C2Nc3ccc4ccccc4c3C3=C2C(=O)CC(C)(C)C3)cc1Br (stereo not shown) [compound 968]
inhibition of cancer cell growth ([5]; cancer cells): highly specific for inhibiting cancer cell growth | effect on normal cells ([5]; normal (nontransformed) cells): little effect

Cc1ncc(C[n+]2csc(CCO)c2C)c(=O)[nH]1 [oxythiamine]
tumor growth [1]: slow down the growth

P110: polypeptide P110, DLLPRGT, inhibitor of Drp1
selectivity for Drp1/Fis1 interaction over Drp1 interaction with other ligands [6]: more selective for blocking Drp1/Fis1 interaction
